# In US11339171B2, “MDM2 inhibitors” (Gan & Lee Pharmaceuticals, priority 2017, dated 2022):
# Legend:
# [1] = target: T1, MDM2 (Homo sapiens, UniProt Q00987); test: Inhibition test of MDM2-P53 (GST-MDM2, Biotin-P53, Anti-GST-Tb, SA-XL665); type: binding; conditions: for inhibitory effect on MDM2 compared with positive control compound HDM201: labels are Example numbers, the compounds with S-configuration are meant
# T1 construct: made in house
# Method in brief: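 Compounds, serially diluted 5-fold (twelve concentrations), were shaken for 90 min at 25° C with a mix of GST-MDM2 (4 nM final), Biotin-P53, anti-GST-Tb and SA-XL665. Buffer: 1×PBS, 0.1% BSA, 5 mM DTT, 1 mM AEBSF; signal read on a microplate reader.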
# [2] = system: human osteosarcoma cell line SJSA-1; test: Inhibition of proliferation of human osteosarcoma cell line SJSA-1 (DAPI staining, In Cell Analyzer); conditions: for IC50: Homo sapiens, SJSA-1, 72 h, read-out: IC50 (nM), inhibitory activity on proliferation of human osteosarcoma cell line SJSA-1, SJSA-1, incubated 72 h; for inhibitory effect on human osteosarcoma cell line SJSA-1 compared with positive control compound HDM201: labels are Example numbers, the compounds with S-configuration are meant
# T1 sequence (Q00987 whole entry): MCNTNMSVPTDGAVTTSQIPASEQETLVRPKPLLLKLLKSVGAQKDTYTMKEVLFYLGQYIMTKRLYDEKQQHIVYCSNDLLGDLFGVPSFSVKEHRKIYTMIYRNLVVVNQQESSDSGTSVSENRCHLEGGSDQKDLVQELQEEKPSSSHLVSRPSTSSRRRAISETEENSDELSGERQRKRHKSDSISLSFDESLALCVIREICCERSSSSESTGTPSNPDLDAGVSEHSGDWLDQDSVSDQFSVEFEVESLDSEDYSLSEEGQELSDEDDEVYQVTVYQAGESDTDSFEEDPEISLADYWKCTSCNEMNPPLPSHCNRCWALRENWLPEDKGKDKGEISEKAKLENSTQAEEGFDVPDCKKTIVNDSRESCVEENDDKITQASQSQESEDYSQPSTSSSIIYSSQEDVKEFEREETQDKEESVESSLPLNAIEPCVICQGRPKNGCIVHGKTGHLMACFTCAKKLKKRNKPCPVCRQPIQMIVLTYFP
SMILES,IC50 [1],IC50 [2],inhibitory effect on MDM2 compared with positive control compound HDM201 [1],inhibitory effect on human osteosarcoma cell line SJSA-1 compared with positive control compound HDM201 [2]
"COc1cc(C)ccc1-c1nc2c(n1C(C)C)[C@@]1(C(=O)Nc3cc(Cl)ccc31)N(c1cccc(Cl)c1)C2=O [Example S-109, (S)-6-chloro-5′-(3-chlorophenyl)-3′-isopropyl-2′-(2-methoxy-4-methylphenyl)-3′H-spiro[dihydroindole-3,4′-pyrrolo[3,4-d]imidazole]-2,6′(5′H)-dione]",2.34 nM,54.6 nM,,
"COc1cc(C(F)(F)F)ccc1-c1nc2c(n1C(C)C)[C@]1(C(=O)Nc3cc(Cl)ccc31)N(c1cc(Cl)ccc1C)C2=O [Example R-85, (R)-6-chloro-5′-(5-chloro-2-methylphenyl)-3′-isopropyl-2′-(2-methoxy-4-(trifluoromethyl)phenyl)-3′H-spiro[dihydroindole-3,4′-pyrrolo[3,4-d]imidazole]-2,6′(5′H)-dione]",494 nM,2190 nM,,
"COc1cc(Cl)cc(N2C(=O)c3nc(-c4cnc(OC)nc4OC)n(C(C)C)c3[C@]23C(=O)Nc2cc(Cl)ccc23)c1 [Example R-58, (R)-6-chloro-5′-(3-chloro-5-methoxyphenyl)-2′-(2,4-dimethoxypyrimidin-5-yl)-3′-isopropyl-3′H-spiro[dihydroindole-3,4′-pyrrolo[3,4-d]imidazole]-2,6′(5′H)-dione]",1430 nM,5890 nM,,
"COc1nc(N2CCC2)ncc1-c1nc2c(n1C(C)C)[C@@]1(C(=O)Nc3cc(Cl)ccc31)N(c1cc(Cl)ccc1C)C2=O [Example S-117, (S)-2′-(2-(12zetidine-1-yl)-4-methoxypyrimidin-5-yl)-6-chloro-5′-(5-chloro-2-methylphenyl)-3′-isopropyl-3′H-spiro[dihydroindole-3,4′-pyrrolo[3,4-d]imidazole]-2,6′(5′H)-dione]",2.15 nM,14.4 nM,,
"COc1cc(C#N)ccc1-c1nc2c(n1C(C)C)[C@@]1(C(=O)Nc3cc(Cl)ccc31)N(c1cccc(Cl)c1)C2=O [Example S-128, (S)-4-(6-chloro-5′-(3-chlorophenyl)-3′-isopropyl-2,6′-dioxo-5′,6′-dihydro-3′H-spiro[dihydroindole-3,4′-pyrrolo[3,4-d]imidazole]-2′-yl)-3-methoxybenzonitrile]",1.09 nM,145 nM,,
"COc1ncc(-c2nc3c(n2C(C)C)[C@]2(C(=O)Nc4cc(Cl)ccc42)N(c2cc(Cl)cnc2C)C3=O)c(OC)n1 [Example R-42, (R)-6-chloro-5′-(5-chloro-2-methylpyridin-3-yl)-2′-(2,4-dimethoxypyrimidin-5-yl)-3′-isopropyl-3′H-spiro[dihydroindole-3,4′-pyrrolo[3,4-d]imidazole]-2,6′(5′H)-dione]",364 nM,4560 nM,,
"COc1ccc(-c2nc3c(n2C(C)C)[C@]2(C(=O)Nc4cc(Cl)ccc42)N(c2cc(Cl)c(=O)n(C)c2)C3=O)c(OC)c1 [Example R-52, (R)-6-chloro-5′-(5-chloro-1-methyl-6-oxo-1,6-dihydropyridin-3-yl)-2′-(2,4-dimethoxyphenyl)-3′-isopropyl-3′H-spiro[dihydroindole-3,4′-pyrrolo[3,4-d]imidazole]-2,6′(5′H)-dione]",540 nM,22400 nM,,
"COc1cc(C2CC2)ncc1-c1nc2c(n1C(C)C)[C@@]1(C(=O)Nc3cc(Cl)ccc31)N(c1cc(Cl)cnc1C)C2=O [Example S-143, (S)-6-chloro-5′-(5-chloro-2-methylpyridin-3-yl)-2′-(6-cyclopropyl-4-methoxypyridin-3-yl)-3′-isopropyl-3′H-spiro[dihydroindole-3,4′-pyrrolo[3,4-d]imidazole]-2,6′(5′H)-dione]",1.1 nM,24.9 nM,,
"COc1cc(C#N)ccc1-c1nc2c(n1C(C)C)[C@]1(C(=O)Nc3cc(Cl)ccc31)N(c1cc(Cl)ccc1C)C2=O [Example R-12, (R)-4-(6-chloro-5′-(5-chloro-2-methylphenyl)-3′-isopropyl-2,6′-dioxo-5′,6′-dihydro-3′H-spiro[dihydroindole-3,4′-pyrrolo[3,4-d]imidazole]-2′-yl)-3-methoxybenzonitrile]",368 nM,2440 nM,,
"COc1ccc(C)cc1-c1nc2c(n1C(C)C)[C@]1(C(=O)Nc3cc(Cl)ccc31)N(c1cc(Cl)ccc1C)C2=O [Example R-62, (R)-6-chloro-5′-(5-chloro-2-methylphenyl)-3′-isopropyl-2′-(2-methoxy-5-methylphenyl)-3′H-spiro[dihydroindole-3,4′-pyrrolo[3,4-d]imidazole]-2,6′(5′H)-dione]",252 nM,4360 nM,,
"COc1cc(N)ccc1-c1nc2c(n1C(C)C)[C@]1(C(=O)Nc3cc(Cl)ccc31)N(c1cc(Cl)ccc1C)C2=O [Example R-49, (R)-2′-(4-amino-2-methoxyphenyl)-6-chloro-5′-(5-chloro-2-methylphenyl)-3′-isopropyl-3′H-spiro[dihydroindole-3,4′-pyrrolo[3,4-d]imidazole]-2,6′(5′H)-dione]",71.4 nM,1490 nM,,
"COc1ncc(-c2cc3c(n2C(C)C)[C@]2(C(=O)Nc4cc(Cl)ccc42)N(c2cc(Cl)ccc2C)C3=O)c(OC)n1 [Example R-50, (R)-6-chloro-5′-(5-chloro-2-methylphenyl)-2′-(2,4-dimethoxypyrimidin-5-yl)-1′-isopropyl-1′H-spiro[dihydroindole-3,6′-pyrrolo[3,4-b]pyrrole]-2,4′(5′H)-dione]",20400 nM,8430 nM,,
"CCc1ccc(Cl)cc1N1C(=O)c2nc(-c3cnc(OC)nc3OC)n(C(C)C)c2[C@]12C(=O)Nc1cc(Cl)ccc12 [Example R-15, (R)-6-chloro-5′-(5-chloro-2-ethylphenyl)-2′-(2,4-dimethoxypyrimidin-5-yl)-3′-isopropyl-3′H-spiro[dihydroindole-3,4′-pyrrolo[3,4-d]imidazole]-2,6′(5′H)-dione]",107 nM,840 nM,,
"COc1cc(N(C)C)ncc1-c1nc2c(n1C(C)C)[C@]1(C(=O)Nc3cc(Cl)ccc31)N(c1cc(Cl)cnc1C)C2=O [Example R-155, (R)-6-chloro-5′-(5-chloro-2-methylpyridin-3-yl)-2′-(6-(dimethylamino)-4-methoxypyridin-3-yl)-3′-isopropyl-3′H-spiro[dihydroindole-3,4′-pyrrolo[3,4-d]imidazole]-2,6′(5′H)-dione]",96.4 nM,1520 nM,,
"CCN(CC)c1ccc(-c2nc3c(n2C(C)C)[C@@]2(C(=O)Nc4cc(Cl)ccc42)N(c2cc(Cl)ccc2C)C3=O)c(OC)c1 [Example S-105, (S)-6-chloro-5′-(5-chloro-2-methylphenyl)-2′-(4-(diethylamino)-2-methoxyphenyl)-3′-isopropyl-3′H-spiro[dihydroindole-3,4′-pyrrolo[3,4-d]imidazole]-2,6′(5′H)-dione]",11.2 nM,243 nM,,
"COc1ncc(-c2nc3c(n2C(C)C)[C@@]2(C(=O)Nc4cc(Cl)ccc42)N(c2ccc(F)c(Cl)c2)C3=O)c(OC)n1 [Example S-3, (S)-6-chloro-5′-(3-chloro-4-fluorophenyl)-2′-(2,4-dimethoxypyrimidin-5-yl)-3′-isopropyl-3′H-spiro[dihydroindole-3,4′-pyrrolo[3,4-d]imidazole]-2,6′(5′H)-dione]",4.92 nM,174 nM,,
"COc1cc(OCCO)ccc1-c1nc2c(n1C(C)C)[C@@]1(C(=O)Nc3cc(Cl)ccc31)N(c1cc(Cl)ccc1C)C2=O [Example S-148, (S)-6-chloro-5′-(5-chloro-2-methylphenyl)-2′-(4-(2-hydroxyethoxy)-2-methoxyphenyl)-3′-isopropyl-3′H-spiro[dihydroindole-3,4′-pyrrolo[3,4-d]imidazole]-2,6′(5′H)-dione]",1.58 nM,71.8 nM,,
"COc1ncc(-c2nc3c(n2C(C)C)C2(C(=O)Nc4cc(Cl)ccc42)N(c2cc(F)cc(Cl)c2)C3=O)c(OC)n1 (centres unmarked) [Example 45, 6-chloro-5′-(3-chloro-5-fluorophenyl)-2′-(2,4-dimethoxypyrimidin-5-yl)-3′-isopropyl-3′H-spiro[dihydroindole-3,4′-pyrrolo[3,4-d]imidazole]-2,6′(5′H)-dione]",,,better,better
"COc1cc(C2CC2)ccc1-c1nc2c(n1C(C)C)[C@@]1(C(=O)Nc3cc(Cl)ccc31)N(c1cccc(Cl)c1)C2=O [Example S-116, (S)-6-chloro-5′-(3-chlorophenyl)-2′-(4-cyclopropyl-2-methoxyphenyl)-3′-isopropyl-3′H-spiro[dihydroindole-3,4′-pyrrolo[3,4-d]imidazole]-2,6′(5′H)-dione]",4.18 nM,213 nM,,
"CCOc1cc(OC)c(-c2nc3c(n2C(C)C)C2(C(=O)Nc4cc(Cl)ccc42)N(c2cc(Cl)cnc2C)C3=O)cn1 (centres unmarked) [Example 96, 6-chloro-5′-(5-chloro-2-methylpyridin-3-yl)-2′-(6-ethoxy-4-methoxypyridin-3-yl)-3′-isopropyl-3′H-spiro[dihydroindole-3,4′-pyrrolo[3,4-d]imidazole]-2,6′(5′H)-dione]",,,better,better
"CCOc1ccc(-c2nc3c(n2C(C)C)[C@@]2(C(=O)Nc4cc(Cl)ccc42)N(c2cc(Cl)ccc2C)C3=O)c(OC)n1 [Example S-146, (S)-6-chloro-5′-(5-chloro-2-methylphenyl)-2′-(6-ethoxy-2-methoxypyridin-3-yl)-3′-isopropyl-3′H-spiro[dihydroindole-3,4′-pyrrolo[3,4-d]imidazole]-2,6′(5′H)-dione]",5.44 nM,67.8 nM,,
"COc1cc(C#N)ccc1-c1nc2c(n1C(C)C)[C@@]1(C(=O)Nc3cc(Cl)ccc31)N(c1cc(Cl)ccc1C)C2=O [Example S-12, (S)-4-(6-chloro-5′-(5-chloro-2-methylphenyl)-3′-isopropyl-2,6′-dioxo-5′,6′-dihydro-3′H-spiro[dihydroindole-3,4′-pyrrolo[3,4-d]imidazole]-2′-yl)-3-methoxybenzonitrile]",3.55 nM,5.27 nM,,
